The results in this text go back to patent US8084645B2, “4-phenylamino-benzaldoxime derivatives and uses thereof as mitogen-activated protein kinase kinase (MEK) inhibitors” (Chugai Seiyaku Kabushiki Kaisha, priority 2003, dated 2011).

Converted amounts (≈) assume the structure as drawn. Read-outs that look alike come from different tables or passages of the source. Where only a bound is given, the exact number is not on record here.

A short description of data set [1]: Determination of stability against human liver microsomes. The class given is in vitro ADME. The settings on record: human liver microsomes 1 mg protein/mL, 2 mM NADPH, pH 7.4, 37 C; read-out: Stability against human liver microsome NADPH+ T1/2. The method, then:
The enzyme reaction was quenched with three volumes of acetonitrile, and the reaction mixture was centrifuged at 1,500 rpm for ten minutes to provide a supernatant as a sample to be measured. Stability against human liver microsomes was measured using HPLC/MS to determine the compounds in the sample.
A general note: Liver microsomes are a subcellular fraction often used to study metabolism.

In data set [2] the target is MEK (Homo sapiens, UniProt Q02750). Briefly: Determination of MEK inhibitory activities (Raf-1 kinase cascade assay, MBP phosphorylation, 33P-ATP).
Chain of MEK (Q02750 whole entry): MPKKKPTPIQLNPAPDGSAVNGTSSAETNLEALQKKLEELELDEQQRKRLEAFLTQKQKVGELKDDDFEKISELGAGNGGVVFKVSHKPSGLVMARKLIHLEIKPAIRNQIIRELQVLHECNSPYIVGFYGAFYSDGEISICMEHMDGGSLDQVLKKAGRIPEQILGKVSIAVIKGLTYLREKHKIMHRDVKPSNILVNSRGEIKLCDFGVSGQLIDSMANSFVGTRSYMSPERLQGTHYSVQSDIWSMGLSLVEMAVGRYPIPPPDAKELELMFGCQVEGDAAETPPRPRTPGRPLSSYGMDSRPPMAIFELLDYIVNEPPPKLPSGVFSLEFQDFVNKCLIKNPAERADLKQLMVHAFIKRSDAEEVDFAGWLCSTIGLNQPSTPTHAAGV
Text: The radioisotope used was [γ^33P]-ATP (Amersham Biosciences, K.K.).
Data set [3] can be described thus: Determination of stability against mouse liver microsomes. The class given is in vitro ADME. To be noted: mouse liver microsomes 1 mg protein/mL, 2 mM NADPH, pH 7.4, 37 C; read-out: Stability against mouse liver microsome NADPH+ T1/2. How it is done:
The enzyme reaction was quenched with three volumes of acetonitrile, and the reaction mixture was centrifuged at 1,500 rpm for ten minutes to provide a supernatant as a sample to be measured. Stability against mouse liver microsomes was measured using HPLC/MS to determine the compounds in the sample.

Data set [4] relates to Human colon cancer cell line HT-29. Briefly: Determination of the activity of inhibiting cell proliferation (Cell Counting Kit-8). It is filed as cell-based. To be noted: HT-29, 96 h, HT29, 2,000 cells/well, incubated four days, read-out: Cell proliferation inhibitory activity (HT29) IC50. How it is done:
Human colon cancer cell line HT-29, obtained from American Type Culture Collection (VA, USA), and human non-small cell lung cancer cell line QG56, obtained from Immuno-Biological Laboratories Co., Ltd., were plated at 2,000 cells/well in a 96-well culture plate, and incubated for four days after addition of a MEK inhibitor of a given concentration.
For orientation: Tetrazolium assays rely on reduction of a dye to a coloured formazan, in cell work by metabolically active cells.

The nature of data set [5]: Determination of water solubility (equilibrium stirring method). It is filed as physicochemical. The settings on record: for solubility at 2 h: aqueous buffer, thermodynamic from solid, read-out: Water solubility (LySA PH 6.5). How it is done: The vessels were sealed, and the contents were sonicated at room temperature (20° C.) for ten minutes, and then stirred with a stirrer for two hours. After reaching solution equilibrium, the solution was separated with a membrane filter, and the solute concentration was determined using HPLC.

[6] abbreviates: 50 mM phosphate buffer pH 6.5, room temperature (20 C).

A word on the solubility: it is how much of the substance goes into solution per volume.

Regarding `O=C(NOCCO)c1cc(/C=N/OCC(O)CO)c(F)c(F)c1Nc1ccc(I)cc1F` (racemic) [Compound 7, (E)-dl-5-[(2,3-Dihydroxy-propoxyimino)-methyl]-3,4-difluoro-2-(2-fluoro-4-iodo-phenylamino)-N-(2-hydroxy-ethoxy)-benzamide], the values for the half-life in data set [1] and in data set [3] were 1.51 h and over 6 h, respectively. For the same compound, the IC50 was 0.033 µM in data set [2] and 0.037 µM in data set [4]. Besides, the solubility at 2 h in data set [5] (phosphate buffer, 20 °C, at pH 6.67) came out at 162 µM (≈ 92.2 µg/mL).
For the compound `C#Cc1ccc(Nc2c(C(=O)NOCCO)cc(/C=N/OCC(O)CO)c(F)c2F)c(F)c1` (racemic) [Compound 8, (E)-dl-5-[(2,3-Dihydroxy-propoxyimino)-methyl]-2-(4-ethynyl-2-fluoro-phenylamino)-3,4-difluoro-N-(2-hydroxy-ethoxy)-benzamide], the half-life is 1.24 h in data set [1] and over 6 h in data set [3]. Also, the figures for the IC50 in data set [2] and in data set [4] were 0.15 µM and 0.185 µM, respectively. Moreover, the solubility at 2 h in data set [5] (phosphate buffer, 20 °C, at pH 6.06) turned out to be 1470 µM (≈ 687 µg/mL).
As for `O=C(NOCC(O)CO)c1cc(/C=N\OCCO)c(F)c(F)c1Nc1ccc(I)cc1F` (racemic) [Compound 58, dl-(Z)—N-(2,3-dihydroxy-propoxy)-3,4-difluoro-2-(2-fluoro-4-iodo-phenylamino)-5-[(2-hydroxy-ethoxyimino)-methyl]-benzamide], the half-life in data set [1] stood at 0.91 h; in data set [3], 0.79 h. Besides, the IC50 worked out at 0.027 µM in data set [2] and 0.037 µM in data set [4]. Also, in data set [5] (setting [6]), the solubility at 2 h was found to be 127 µM (≈ 72.3 µg/mL).
For the compound `O=C(NOCCO)c1cc(/C=N/OCCO)c(F)c(F)c1Nc1ccc(I)cc1F` [Compound 1, (E)-3,4-difluoro-2-(2-fluoro-4-iodo-phenylamino)-N-(2-hydroxy-ethoxy)-5-[(2-hydroxy-ethoxyimino)-methyl]-benzamide], the half-life in data set [1] was found to be 1.08 h; in data set [3], 3.94 h. Besides, the IC50 is 0.1 µM in data set [2] and 0.08 µM in data set [4]. In addition, in data set [5] (setting [6]), the “Water solubility (LySA PH 6.5)” value is 8.3 µM.
For `C#Cc1ccc(Nc2c(C(=O)NOCCO)cc(/C=N/OCCO)c(F)c2F)c(F)c1` [Compound 2, (E)-2-(4-ethynyl-2-fluoro-phenylamino)-3,4-difluoro-N-(2-hydroxy-ethoxy)-5-[(2-hydroxy-ethoxyimino)-methyl]-benzamide] the same measures were 1.34 h, 2.25 h, 0.24 µM, 0.15 µM and 415 µM.
With `O=C(NOCCO)c1cc(/C=N/O)c(F)c(F)c1Nc1ccc(I)cc1F` [Compound 3, (E)-3,4-difluoro-2-(2-fluoro-4-iodo-phenylamino)-N-(2-hydroxy-ethoxy)-5-(hydroxyiminomethyl)-benzamide], the results for the half-life in data set [1] and in data set [3] were 1.55 h and 0.97 h, respectively. The values for the IC50 in data set [2] and in data set [4] were 0.078 µM and 0.065 µM, respectively. The solubility at 2 h in data set [5] (setting [6]) amounted to 6.4 µM (≈ 3.17 µg/mL).
Take `O=C(NOCCO)c1cc(/C=N/OCCCO)c(F)c(F)c1Nc1ccc(I)cc1F` [Compound 4, (E)-3,4-Difluoro-2-(2-fluoro-4-iodo-phenylamino)-N-(2-hydroxy-ethoxy)-5-[(3-hydroxy-propoxyimino)-methyl]-benzamide]: the half-life in data set [1] and in data set [3] was over 6 h in each case. For the same compound, the IC50 came out at 0.069 µM in data set [2] and 0.045 µM in data set [4]. For the same compound, the solubility at 2 h in data set [5] (phosphate buffer, 20 °C, at pH 6.08) is 3.8 µM (≈ 2.1 µg/mL).
In the case of `C#Cc1ccc(Nc2c(C(=O)NOCCO)cc(/C=N/OCCCO)c(F)c2F)c(F)c1` [Compound 5, (E)-2-(4-Ethynyl-2-fluoro-phenylamino)-3,4-Difluoro-N-(2-hydroxy-ethoxy)-5-[(3-hydroxy-propoxyimino)-methyl]-benzamide], the results for the half-life in data set [1] and in data set [3] were 4.12 h and over 6 h, respectively. Besides, the IC50 in data set [2] amounted to 0.15 µM; in data set [4], 0.17 µM. For the same compound, the solubility at 2 h in data set [5] (phosphate buffer, 20 °C, at pH 6.87) is 426 µM (≈ 192 µg/mL).
As to `CC(O)CO/N=C/c1cc(C(=O)NOCCO)c(Nc2ccc(I)cc2F)c(F)c1F` (stereo not drawn) [Compound 15, (E)-3,4-difluoro-2-(2-fluoro-4-iodo-phenylamino)-N-(2-hydroxy-ethoxy)-5-[(2-hydroxy-propoxyimino)-methyl]-benzamide], the results for the half-life in data set [1] and in data set [3] were 2.67 h and 0.978 h, respectively. Further, the IC50 in data set [2] turned out to be 0.11 µM; in data set [4], 0.137 µM. The solubility at 2 h in data set [5] (setting [6]) was determined as 8 µM (≈ 4.43 µg/mL).
For `CN(C)CCO/N=C/c1cc(C(=O)NOCCO)c(Nc2ccc(I)cc2F)c(F)c1F` [Compound 16, (E)-5-[(2-dimethylamino-ethoxyimino)-methyl]-3,4-difluoro-2-(2-fluoro-4-iodo-phenylamino)-N-(2-hydroxy-ethoxy)-benzamide], in that order: over 6 h, 3.08 h, 0.244 µM, 0.21 µM and 2400 µM (≈ 1360 µg/mL).
For `O=C(NOCCO)c1cc(/C=N/OCCN2CCOCC2)c(F)c(F)c1Nc1ccc(I)cc1F` [Compound 18, (E)-3,4-difluoro-2-(2-fluoro-4-iodo-phenylamino)-N-(2-hydroxy-ethoxy)-5-[(2-morpholin-4-yl-ethoxyimino)-methyl]-benzamide] the same measures were over 6 h, over 6 h, 0.262 µM, 0.14 µM and 164 µM (≈ 99.8 µg/mL).
For `O=C(NOCCO)c1cc(/C=N/OCCN2CCC(O)CC2)c(F)c(F)c1Nc1ccc(I)cc1F` [Compound 19, (E)-3,4-difluoro-2-(2-fluoro-4-iodo-phenylamino)-N-(2-hydroxy-ethoxy)-5-{[2-(4-hydroxy-piperidin-1-yl)-ethoxyimino]-methyl}-benzamide], in that order: over 6 h, over 6 h, 0.693 µM, 0.75 µM and 2910 µM (≈ 1810 µg/mL).
Consider `O=C(NOCCO)c1cc(/C=N/OCCN2CCC[C@H]2CO)c(F)c(F)c1Nc1ccc(I)cc1F` [Compound 20, (E)-3,4-difluoro-2-(2-fluoro-4-iodo-phenylamino)-N-(2-hydroxy-ethoxy)-5-{[2-((S)-hydroxymethyl-pyrrolidin-1-yl)-ethoxyimino]-methyl}-benzamide], for which the half-life in data set [1] and in data set [3] was over 6 h throughout. Also, the IC50 in data set [2] stood at 0.696 µM; in data set [4], 0.643 µM. Also, the solubility at 2 h in data set [5] (setting [6]) came to 1830 µM (≈ 1140 µg/mL).
For `O=C(NOCCO)c1cc(/C=N/OCCN2CCCC2)c(F)c(F)c1Nc1ccc(I)cc1F` [Compound 21, (E)-3,4-difluoro-2-(2-fluoro-4-iodo-phenylamino)-N-(2-hydroxy-ethoxy)-5-[(2-pyrrolidin-1-yl-ethoxyimino)-methyl]-benzamide], the half-life in data set [1] and in data set [3] was over 6 h throughout. In addition, the IC50 stood at 0.802 µM in data set [2] and 0.651 µM in data set [4]. Also, the solubility at 2 h in data set [5] (setting [6]) worked out at 1480 µM (≈ 879 µg/mL).
As to `NCCO/N=C/c1cc(C(=O)NOCCO)c(Nc2ccc(I)cc2F)c(F)c1F` [Compound 22, (E)-5-[(2-amino-ethoxyimino)-methyl]-3,4-difluoro-2-(2-fluoro-4-iodo-phenylamino)-N-(2-hydroxy-ethoxy)-benzamide], the half-life in data set [1] and in data set [3] was over 6 h each time. Moreover, the IC50 in data set [2] turned out to be 0.075 µM; in data set [4], 0.036 µM. In data set [5] (setting [6]), the solubility at 2 h was 146 µM (≈ 78.6 µg/mL).
